A value given as a limit tells only on which side of the number the result lay.

The conditions of data set [1]: in vivo.
Data set [2] can be described thus: Repeated administration on male rats for 2 weeks (toxicity, toxicokinetics). The format is in vivo, SD male rats. As to the method: 77 SD male rats (SPF grade) were selected and randomly divided into 10 groups based on body weight. Group 1 was the vehicle control group, including 5 animals. […] Group 5 to Group 7 were the groups administrated with the test substance 1; and Group 8 to Group 10 were the groups administrated with the test substance 2, each group including 8 animals, wherein 5 animals for primary test, and 3 animals for toxicokinetics test, and the administration dose was 1, 3 and 10 mg/kg respectively. Each of the above groups was continuously administered twice a week for 2 weeks (administrating at Day 1, Day 5, Day 8, Day 12 and Day 15).
During the experiment, the cage condition monitoring, detailed clinical observations, determination of the food consumption, determination of body weight, measurement of the blood biochemical and hematology indicator, investigation of the gross anatomy, weighing of the organ, studying on toxicokinetic were performed on all the groups of the animals.
Original data during each time period was tabulated. The average values and standard deviations and/or group change were calculated for each assay endpoint based on the group and sex. For each endpoint, the administrated group will be compared with the control group in the following aspect. A logarithmic conversion was performed to the endpoint data as desired prior to the start of the specific analyses.

Data set [3] in a line: Pharmacokinetics in C57 mice. The note with it: C57, mouse, in vivo. As to the method:
After subcutaneous or intravenous administration to C57 mice, plasma was collected and the drug concentration in plasma was determined to illustrate the in vivo pharmacokinetic properties of the compound according to the present invention. […] 20.0 µL of thawed plasma sample was taken. 20 µL of 50% aqueous methanol solution (containing 100 ng mL^-1 Tolbutamide) and 60 µL of acetonitrile were added sequentially to precipitate protein. The mixture was vortexed for 5 minutes, and centrifuged at 4815 rpm for 8 minutes. 50.0 µL of the supernatant was taken, into which 50.0 µL of 0.5% aqueous formic acid solution was added. The mixture was vortexed for 5 minutes. 50 µL of the mixture solution was sampled and injected into the LC-MS/MS to determine the drug concentration in plasma. Based on the drug concentration in plasma of the compounds in C57 mice, the pharmacokinetic parameters were calculated by applying the software Winnolin 8.3 in a non-compartmental model, and the results were shown in Table 7 and Table 8 below. Table 7 Average Pharmacokinetic Parameters after Single Subcutaneous Administration to Mice

Data set [4] in a line: Pharmacokinetics following single administration in SD rats. The note with it: male, Sprague-Dawley, rat, in vivo, sc. As to the method: The compound was administrated to male SD rats (230-268 g, n=3) at a dose of 50.0 nmol/kg (s.c.) or 25.0 nmol/kg (i.v.). […] 30.0 μL of thawed plasma sample was taken. 150 μL of acetonitrile solution (containing 5 ng·mL^-1 Verapamil , 50 ng·mL^-1 Glibenclamide, 200 ng·mL^-1 Tolbutamide and 200 ng·mL^-1 Diclofenac) were added to precipitate protein. The mixture was vortexed for 5 minutes, and centrifuged at 3700 rpm for 8 minutes. 70.0 μL of the supernatant was taken, into which 70.0 μL of 0.5% aqueous formic acid solution was added. The mixture was vortexed for 5 minutes. 15 μL of the mixture solution was sampled and injected into the LC-MS/MS to determine the drug concentration in plasma. 20.0 μL of thawed plasma sample was taken. 60 μL of acetonitrile solution (containing 5 ng·mL^-1 Verapamil, 50 ng·mL^-1 Glibenclamide, 200 ng·mL^-1 Tolbutamide and 200 ng·mL^-1 Diclofenac) were added to precipitate protein. […] The mixture was vortexed for 10 minutes. 10.0 μL of the mixture solution was sampled and injected into the LC-MS/MS to determine the drug concentration in plasma. 30.0 μL of thawed plasma sample was taken. 150 μL of acetonitrile solution (containing 5 ng·mL^-1 Verapamil, 50 ng·mL^-1 Glibenclamide, 200 ng·mL^-1 Tolbutamide and 200 ng·mL^-1 Diclofenac) were added to precipitate protein. The mixture was vortexed for 5 minutes, and centrifuged at 3700 rpm for 8 minutes. 70.0 μL of the supernatant was taken, into which 70.0 μL of 0.5% aqueous formic acid solution was added. The mixture was vortexed for 5 minutes. 10.0 μL of the mixture solution was sampled and injected into the LC-MS/MS to determine the drug concentration in plasma. […] Table 5 Pharmacokinetic Parameters after Subcutaneous Injection of Different Polypeptide Compounds to Rats

Another data set addresses human GLP-1R (Homo sapiens, UniProt P43220). Description: In vitro binding activity to human GLP-1 receptor ([125I]GLP-1 displacement, crude cell membranes). Set-up: expressed in transfected cells. The note with it: ratio of the Ki value of the endogenous ligand to the Ki value of the test compound; larger ratio = stronger binding. As to the method: (§1) 89 µL of membrane dissolved in binding buffer (50 mM Hepes, pH 7.4, 5 mM MgCl2 , 5 mM EDTA, 0.005% TWEEN, 0.005% HSA) was transferred to a 96-well test plate (5 µg/well). The compound was serially diluted in DMSO, and then, 1 µL of the diluted compound or 100% DMSO was added to the test plate containing the membrane solution. 10 µL of [^125I] […] The test plate was left at room temperature for 90 minutes. The membrane complexes were harvested into a GF/B plate pre-coated with 0.5% PEI by using a Cell Harvester, and washed for 3 times with 500 µL of pre-cooled elution buffer (50 mM Hepes, pH 7.4, 500 mM NaCl) at 4°C. After drying at 37°C for 2 hours, 50 µL of scintillation fluid was added to each well. The plate was read with a MicroBeta2 scintillation counter after sealing and settling for at least 1 hour so as to determine the membrane bound radioligand level.
The IC50 concentration was converted to Ki (Ki was the inhibition constant) using the Cheng-Prusoff equation.

The target of another data set is T1, human GIP Receptor (Homo sapiens, UniProt P48546).
T1 construct: expressed in transfected cells
T1 sequence (P48546 22-466): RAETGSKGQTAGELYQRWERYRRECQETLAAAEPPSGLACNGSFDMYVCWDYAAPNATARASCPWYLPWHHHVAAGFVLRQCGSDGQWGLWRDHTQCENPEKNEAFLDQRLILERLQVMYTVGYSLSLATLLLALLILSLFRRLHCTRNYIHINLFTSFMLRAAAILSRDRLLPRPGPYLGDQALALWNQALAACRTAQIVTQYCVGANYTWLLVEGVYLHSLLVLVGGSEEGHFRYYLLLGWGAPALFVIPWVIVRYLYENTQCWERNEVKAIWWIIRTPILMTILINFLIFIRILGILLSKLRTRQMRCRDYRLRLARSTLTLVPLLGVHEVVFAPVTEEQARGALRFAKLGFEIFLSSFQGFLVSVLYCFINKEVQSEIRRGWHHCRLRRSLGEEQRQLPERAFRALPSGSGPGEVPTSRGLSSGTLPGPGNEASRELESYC
Description: In vitro binding activity to human GIP receptor ([125I]GIP displacement, crude cell membranes). The conditions noted are these: ratio of the Ki value of the endogenous ligand to the Ki value of the test compound; larger ratio = stronger binding. As for the experimental part:
as §1
hGIP and the compound of the present invention were dissolved in DMSO and stored at -80°C. 98 µL of membrane dissolved in binding buffer (50 mM HEPES pH 7.4, 5 mM MgCl2, 1 mM CaCl2, 0.1% BSA, 0.005% Tween-20) was transferred to a 96-well test plate (15 µg/well). The compound was serially diluted in DMSO, and then, 2 µL of the diluted compounds or 100% DMSO was added to the test plate containing the membrane solution. […] The test plate was left at room temperature for 90 minutes. The membrane complexes were harvested into a GF/B plate pre-coated with 0.5% PEI by using a Cell Harvester, and washed for 3 times with 500 µL of pre-cooled elution buffer (50 mM Tris-HCl pH 7.4, 125 mM NaCl) at 4°C. After drying at 37°C for 2 hours, 50 µL of scintillation fluid was added to each well. The plate was read with a MicroBeta2 scintillation counter after sealing and settling for at least 1 hour so as to determine the membrane bound radioligand level.
The IC50 concentration was converted to Ki (Ki was the inhibition constant) using the Cheng-Prusoff equation. Table 1. Receptor Binding Affinity, Ki Ratio

Another data set deals with db/db mice. Description: Pharmacodynamic effects in db/db mice, single subcutaneous administration (blood glucose). The conditions noted are these: single s.c. 10 nmol/kg, Group 2, longest time with p<0.05 vs. vehicle. The format is in vivo. As to the method:
In this study, 8-9 week old male db/db mice were used. The db/db mice were placed in an individual ventilated cage (IVC) facility with a controlled temperature (20-26°C) and humidity (40-70%) and a controlled 12h:12 h light-dark cycle. The mice can receive food and water ad libitum. Blood was sampled at the tail tip, and the random base blood glucose was measured by a Roche blood glucose meter. The mice were randomly divided into groups according to the random initial fasting blood glucose and initial body weight (n=6/group), and each group had similar body weight and blood glucose.
After a single subcutaneous administration, the random base blood glucoses were recorded at the set time point (0 to 120 hours, the recording of the random base blood glucose was stopped until there was no difference between the random base blood glucose of the compound and that of the vehicle group), and the daily body weight and food intake were also recorded. The data results were statistically analyzed using GraphPad Prism8, and the statistical differences among the groups were analyzed following a T-Test. Significant differences were identified at p<0.05.
Hypoglycemic Duration: the longest time during which the random base blood glucose of the compound has a significant difference (p<0.05) vs. the vehicle group. Table 13. Hypoglycemic Duration of the Compounds

human GLP-1R, sequence (P43220 24-463): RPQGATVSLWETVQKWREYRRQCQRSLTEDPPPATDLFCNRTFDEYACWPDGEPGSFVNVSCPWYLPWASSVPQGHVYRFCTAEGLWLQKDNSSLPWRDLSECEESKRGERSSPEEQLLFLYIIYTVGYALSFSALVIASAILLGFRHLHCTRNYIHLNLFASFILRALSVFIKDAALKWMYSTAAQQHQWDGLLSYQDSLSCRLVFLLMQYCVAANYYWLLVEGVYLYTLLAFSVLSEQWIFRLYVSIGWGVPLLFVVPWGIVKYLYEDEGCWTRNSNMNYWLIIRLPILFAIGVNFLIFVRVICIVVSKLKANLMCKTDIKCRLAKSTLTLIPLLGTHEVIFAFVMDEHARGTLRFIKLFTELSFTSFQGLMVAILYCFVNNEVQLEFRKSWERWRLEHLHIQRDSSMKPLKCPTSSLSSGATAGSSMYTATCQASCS

With `CC[C@H](C)[C@H](NC(=O)[C@H](CC(C)C)NC(=O)[C@H](Cc1c[nH]c2ccccc12)NC(=O)[C@H](CCC(N)=O)NC(=O)[C@@H](NC(=O)[C@H](Cc1ccccc1)NC(=O)[C@H](C)NC(=O)[C@H](CCCCNC(=O)COCCOCCNC(=O)COCCOCCNC(=O)CC[C@H](NC(=O)CCCCCCCCCCCCCCCCCCC(=O)O)C(=O)O)NC(=O)[C@H](CCC(N)=O)NC(=O)[C@H](C)NC(=O)[C@@H](NC(=O)[C@H](CCCCN)NC(=O)[C@H](CC(=O)O)NC(=O)[C@H](CC(C)C)NC(=O)C(C)(C)NC(=O)[C@@H](NC(=O)[C@H](CO)NC(=O)[C@H](Cc1ccc(O)cc1)NC(=O)[C@H](CC(=O)O)NC(=O)[C@H](CO)NC(=O)[C@@H](NC(=O)[C@H](Cc1ccccc1)NC(=O)[C@@H](NC(=O)CNC(=O)[C@H](CCC(=O)O)NC(=O)C(C)(C)NC(=O)[C@@H](N)Cc1ccc(O)cc1)[C@@H](C)O)[C@@H](C)O)[C@@H](C)CC)[C@@H](C)CC)C(C)C)C(=O)N[C@@H](C)C(=O)NCC(=O)NCC(=O)N1CCC[C@H]1C(=O)N[C@@H](CO)C(=O)N[C@@H](CO)C(=O)NCC(=O)N[C@@H](C)C(=O)N1CCC[C@H]1C(=O)N1CCC[C@H]1C(=O)N1CCC[C@H]1C(=O)N[C@@H](CO)C(N)=O` [Tirzepatide, reference compound], in data set [1], the “heart rate recovery time” value is more than 120 h. Besides, in data set [2] (MTD for 2 weeks, rats), the MTD was 2077 nmol/kg (MTD for 2 weeks). The “dose at which decrease of the body weight was observed after the first administration” value in data set [2] (SD male rats) was not below 3 mg/kg. For the same compound, in data set [2] (SD male rats, 1, 3, 10 mg/kg twice a week for 2 weeks), the “Gross Anatomy” value is “no abnormalities were found”. In addition, in data set [2] (SD male rats, administered twice a week for 2 weeks), the “accumulation (toxicokinetic)” value is “no substantial accumulation”. In data set [2] (Sprague-Dawley, rat, in vivo, SD male rats, administered twice a week for 2 weeks), the MTD at 336 h was not below 10 mg/kg. Besides, the “Safety Window (based on dosage)” value in data set [2] (rat 2-week MTD versus efficacy dose) is listed as 416. Also, the MRT – broadly, the average time that molecules of a dose stay in the body – in data set [3] (iv, MRT(0-t)) was 11.4 h; in data set [3] (iv, MRT(0-∞)) it was 12 h; in data set [3] (sc, MRT(0-t)), 14.5 h; in data set [3] (sc, MRT(0-∞)), 15.3 h.

As to `CC[C@H](C)[C@H](NC(=O)C(C)(C)NC(=O)[C@H](Cc1ccc(O)cc1)NC(=O)[C@H](CC(=O)O)NC(=O)[C@H](CO)NC(=O)[C@@H](NC(=O)C(C)(Cc1ccccc1)NC(=O)[C@@H](NC(=O)CNC(=O)[C@H](CCC(=O)O)NC(=O)C(C)(C)NC(=O)[C@@H](N)Cc1ccc(O)cc1)[C@@H](C)O)[C@@H](C)O)C(=O)NC(C)(C)C(=O)N[C@@H](CC(C)C)C(=O)N[C@@H](CC(=O)O)C(=O)N[C@@H](CCCCN)C(=O)N[C@@H](CCC(N)=O)C(=O)N[C@@H](C)C(=O)N[C@@H](CCC(N)=O)C(=O)N[C@@H](C)C(=O)N[C@@H](CCC(=O)O)C(=O)N[C@@H](Cc1ccccc1)C(=O)N[C@H](C(=O)N[C@@H](CCCCN)C(=O)N[C@@H](Cc1c[nH]c2ccccc12)C(=O)N[C@@H](CC(C)C)C(=O)N[C@@H](CC(C)C)C(=O)N[C@@H](CCCCNC(=O)COCCOCCNC(=O)COCCOCCNC(=O)CC[C@H](NC(=O)CC[C@H](NC(=O)CC[C@H](NC(=O)CCCCCCCCCCCCCCCCC(=O)O)C(=O)O)C(=O)O)C(=O)O)C(=O)NCC(=O)NCC(=O)N1CCC[C@H]1C(=O)N[C@@H](CO)C(=O)N[C@@H](CO)C(=O)NCC(=O)N[C@@H](C)C(=O)N1CCC[C@H]1C(=O)N1CCC[C@H]1C(=O)N1CCC[C@H]1C(=O)N[C@@H](CO)C(=O)N[C@@H](CCCCN)C(N)=O)C(C)C` (stereo partly shown) [Compound P018], in data set [4], the Tmax (usually the time at which the peak concentration occurs) stood at 24 h and the half-life (in general, how long it takes for the measured level to halve) was 1100 ± 406 min. Also, the “GLP-1R Ki ratio” value at human GLP-1R stood at 1.45. Also, the “GIPR Ki ratio” value on human GIP Receptor came to 0.05. Besides, in the data set with db/db mice, the “Hypoglycemic Duration” value was found to be 48 h.
